Target: T1, androgen receptor (AR) (Homo sapiens, UniProt P10275, T878A)
T1 sequence (P10275 1-920 T878A): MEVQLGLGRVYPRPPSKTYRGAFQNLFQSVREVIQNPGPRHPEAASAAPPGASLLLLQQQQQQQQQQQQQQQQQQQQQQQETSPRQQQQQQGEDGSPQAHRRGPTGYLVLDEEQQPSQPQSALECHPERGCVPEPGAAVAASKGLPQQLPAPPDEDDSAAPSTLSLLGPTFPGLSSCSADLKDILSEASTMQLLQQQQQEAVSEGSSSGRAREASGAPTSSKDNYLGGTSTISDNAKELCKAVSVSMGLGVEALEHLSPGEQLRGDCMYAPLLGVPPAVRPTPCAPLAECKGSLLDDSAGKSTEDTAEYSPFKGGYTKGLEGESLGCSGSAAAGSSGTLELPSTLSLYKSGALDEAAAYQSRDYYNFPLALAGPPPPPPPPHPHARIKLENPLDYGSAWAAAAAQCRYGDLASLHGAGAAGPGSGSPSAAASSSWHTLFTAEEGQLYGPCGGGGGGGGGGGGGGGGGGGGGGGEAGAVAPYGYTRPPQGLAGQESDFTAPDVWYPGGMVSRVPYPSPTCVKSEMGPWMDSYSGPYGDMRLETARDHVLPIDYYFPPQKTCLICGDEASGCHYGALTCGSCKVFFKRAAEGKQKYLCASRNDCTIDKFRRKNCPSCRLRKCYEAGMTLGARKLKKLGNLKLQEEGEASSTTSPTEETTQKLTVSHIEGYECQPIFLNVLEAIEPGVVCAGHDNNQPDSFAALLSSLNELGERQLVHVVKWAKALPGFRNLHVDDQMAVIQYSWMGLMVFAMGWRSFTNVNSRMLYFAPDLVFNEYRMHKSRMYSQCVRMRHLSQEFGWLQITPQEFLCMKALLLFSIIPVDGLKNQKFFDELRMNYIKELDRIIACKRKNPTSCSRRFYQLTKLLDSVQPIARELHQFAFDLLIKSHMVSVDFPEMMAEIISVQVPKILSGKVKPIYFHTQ
Assay: Androgen-induced PSA (6.1 kb)-luciferase reporter assay in LNCaP cells (R1881 1 nM)
Type: cell-based
Parameters: endogenous in cells; host or cells: LNCaP
Conditions: 24 h, read-out: PSA-Luc IC50 Range
Experimental: The PSA (6.1 kb)-luciferase reporter contains functional AREs (androgen response elements) to which AR binds in response to androgen to induce luciferase activity. LNCaP cells were transiently transfected with the PSA (6.1 kb)-luciferase reporter for 24 h, and then pretreated with vehicle (DMSO) or indicated concentration of representative compounds for one hour prior to the addition of synthetic androgen, R1881 (1 nM). After 24 h of incubation with R1881, the cells were harvested, and relative luciferase activities were determined (FIG. 1). To determine the IC50, treatments were normalized to vehicle control activity induced by R1881 (Table 2).
Luciferase Assay: Cells were lysed using Passive Lysis Buffer (Promega) and then collected into V-bottom 96-well tissue culture plates. Lysates were centrifuged at 4° C. for 5 minutes at 3000 rpm. To measure luminescence of LNCaP cell lysates the Firefly Luciferase Assay System (Promega) was employed, according to manufacturer's protocol. Relative luminescence units (RLU) in cell lysates were detected for 10 seconds using Promega GloMax-Multi Detection Luminometer (Promega). Values were normalized to protein content. GraphPad Prism graphing software was used to calculate IC50 values.
Statistical analyses were performed using GraphPad Prism (Version 6.01 for Windows; La Jolla, Calif., USA). Comparisons between treatment and control groups were compared using Two-Way ANOVA with post-hoc Dunnett's and Tukey's tests. Differences were considered statistically significant at P values less than 0.05.

Row | IC50 [nM] | SMILES
1 | > 2000 | CS(=O)(=O)NC12CC(COc3ccc4c(c3)CCCC4c3cc(Cl)c(OCCCl)c(C#N)c3)(C1)C2 (stereo not drawn) [Compound A247]
2 | < 500 | CC(C)(c1ccc(OCC23CC(CNS(C)(=O)=O)(C2)C3)cc1)c1cc(Cl)c(OCCCl)c(C#N)c1 [Compound A277]
3 | > 2000 | CS(=O)(=O)N1CC2(CN(Cc3ccc4c(ccn4-c4cc(Cl)c(OCCCl)c(C#N)c4)c3)C2)C1 [Compound A241, 3-chloro-2-(2-chloroethoxy)-5-(5-((6-(methylsulfonyl)-2,6-diazaspiro[3.3]heptan-2-yl)methyl)-1H-indol-1-yl)benzonitrile]
4 | > 2000 | CC(C)(c1ccc(-c2cnc3oc(NS(C)(=O)=O)nc3c2)cc1)c1cc(Cl)c(OCCCl)c(C#N)c1 [Compound A256]
5 | > 2000 | CN(C1CCN(Cc2ccc3c(ccn3-c3cc(Cl)c(OCCCl)c(C#N)c3)c2)CC1)S(C)(=O)=O [Compound A237]
6 | 500 to 2000 | CC(C)(c1ccc(-c2cnc3c(NS(C)(=O)=O)nccc3n2)cc1)c1cc(Cl)c(OCCCl)c(C#N)c1 [Compound A280]
7 | > 2000 | CS(=O)(=O)N1CCCC1COc1ccc2c(ccn2-c2cc(Cl)c(OCCCl)c(C#N)c2)c1 (stereo not drawn) [Compound A201]
8 | > 2000 | CC(C)(c1ccc(OCc2ccnc(NS(C)(=O)=O)n2)cc1)c1cc(Cl)c(OCC(O)CCl)c(C#N)c1 (stereo not drawn) [Compound A258]
9 | > 2000 | CS(=O)(=O)N[C@H]1CC[C@@H](COc2ccc3c(ccn3-c3cc(Cl)c(OCCCl)c(C#N)c3)c2)CC1 [Compound A208]
10 | > 2000 | CS(=O)(=O)NC1CCCN(CCc2ccc3c(ccn3-c3cc(Cl)c(OCCCl)c(C#N)c3)c2)C1 (stereo not drawn) [Compound A245]
11 | 500 to 2000 | CS(=O)(=O)N1CC(CCOc2ccc3c(ccn3-c3cc(Cl)c(OCCCl)c(C#N)c3)c2)C1 [Compound A225]
12 | > 2000 | CC(C)(c1ccc(-c2cnc3c(c2)C(NS(C)(=O)=O)CCC3)cc1)c1cc(Cl)c(OCCCl)c(C#N)c1 (stereo not drawn) [Compound A243]
13 | 500 to 2000 | CC(C)(c1ccc(-c2cnc3nc(NS(C)(=O)=O)ccc3n2)cc1)c1cc(Cl)c(OCCCl)c(C#N)c1 [Compound A279]
14 | > 2000 | CC(C)(c1ccc(-c2ccc3oc(NS(C)(=O)=O)nc3n2)cc1)c1cc(Cl)c(OCCCl)c(C#N)c1 [Compound A281]
15 | 500 to 2000 | CS(=O)(=O)N1C[C@H]2C[C@@H](Oc3ccc4c(ccn4-c4cc(Cl)c(OCCCl)c(C#N)c4)c3)C[C@H]2C1 [Compound A221]
16 | > 2000 | CC(C)(c1ccc(-c2ccc3c(c2)OCC(CNS(C)(=O)=O)O3)cc1)c1cc(Cl)c(OCCCl)c(C#N)c1 (stereo not drawn) [Compound A230]
17 | > 2000 | CC(C)(c1ccc(-c2cnc3c(c2)CCCC3NS(C)(=O)=O)cc1)c1cc(Cl)c(OCCCl)c(C#N)c1 (stereo not drawn) [Compound A216]

The next lines start with the compound.

Row | SMILES | IC50 [nM]
18 | CS(=O)(=O)Nc1ncc2c(n1)CCN(Cc1ccc3c(ccn3-c3cc(Cl)c(OCCCl)c(C#N)c3)c1)C2 [Compound A154] | > 2000
19 | CC(C)CNc1ncc(C(C)(C)c2ccc(OCc3ccnc(NS(C)(=O)=O)n3)cc2)cc1Cl [Compound A67] | > 2000
20 | CS(=O)(=O)N1CCC(Oc2ccc3c(ccn3-c3cc(Cl)c(OCCCl)c(C#N)c3)c2)CC1 [Compound A200] | 500 to 2000
21 | CC(C)(c1ccc(-c2ccn3c(S(C)(=O)=O)c(N)nc3c2)cc1)c1cc(Cl)c(OCCCl)c(C#N)c1 [Compound A112] | > 2000
22 | CS(=O)(=O)Nc1nccc(COc2ccc(-n3ccc4c(C#N)c(OCCCl)c(C#N)cc43)cc2)n1 [Compound A75] | > 2000
23 | CS(=O)(=O)NC12CC(COc3ccc4c(-c5cc(Cl)c(OCCCl)c(C#N)c5)csc4c3)(C1)C2 [Compound A138] | > 2000
24 | CS(=O)(=O)Nc1nccc(COc2ccc3c(c2)CC[C@H]3c2cc(Cl)c(OCCCl)c(C#N)c2)n1 [A35(S)] | 500 to 2000
25 | CS(=O)(=O)NC1CC2(C1)CN(Cc1ccc3c(ccn3-c3cc(Cl)c(OCCCl)c(C#N)c3)c1)C2 [Compound A171] | > 2000
26 | CC(C)(c1ccc(-c2cnc3c(NS(C)(=O)=O)nccc3c2)cc1)c1cc(Cl)c(OCCCl)c(C#N)c1 [Compound A199] | < 500
27 | CS(=O)(=O)Nc1nccc(COc2ccc3c(ccn3-c3cc(Cl)c(OCC(Cl)(Cl)Cl)c(C#N)c3)c2)n1 [Compound A22] | > 2000
28 | CC(C)(c1ccc(OCc2ccnc(NS(C)(=O)=O)n2)cc1)c1cc(Cl)c(N2CCC(CO)CC2)c(C#N)c1 [Compound A90] | 500 to 2000
29 | CC(C)(c1ccc(-c2cnc3nc(NS(C)(=O)=O)cnc3c2)cc1)c1cc(Cl)c(OCCCl)c(C#N)c1 [Compound A195] | > 2000
30 | CC(NC12CC(NS(C)(=O)=O)(C1)C2)c1ccc2c(ccn2-c2cc(Cl)c(OCCCl)c(C#N)c2)c1 (stereo not drawn) [Compound A184] | > 2000
31 | CC(C)(c1ccc(OCc2ncncc2N)cc1)c1cc(Cl)c(OCCCl)c(C#N)c1 [Compound A98] | 500 to 2000
32 | N#Cc1cc(-n2ccc3cc(OCc4coc(S(N)(=O)=O)c4)ccc32)cc(Cl)c1OCCCl [Compound A20] | 500 to 2000
33 | CS(=O)(=O)N1CC2(CC(COc3ccc4c(ccn4-c4cc(Cl)c(OCCCl)c(C#N)c4)c3)C2)C1 [Compound A162] | 500 to 2000
34 | CC(C)(c1ccc(OCc2cnc(NS(C)(=O)=O)nc2N2CCNCC2)cc1)c1cc(Cl)c(OCCCl)c(C#N)c1 [Compound A120] | < 500

Row | SMILES | IC50 [nM]
35 | CC(C)(c1ccc(OCc2ccnc(NS(C)(=O)=O)c2N)cc1)c1cc(Cl)c(OCCCl)c(C#N)c1 [Compound A97] | < 500
36 | CS(=O)(=O)NCC1CN(Cc2ccc3c(ccn3-c3cc(Cl)c(OCCCl)c(C#N)c3)c2)CCO1 (stereo not drawn) [Compound A170] | > 2000
37 | CS(=O)(=O)Nc1nccc(COc2ccc3c(c2)CC[C@@H]3c2cc(Cl)c(OCCCl)c(C#N)c2)n1 [A35(R)] | < 500
38 | CS(=O)(=O)Nc1nccc(COc2ccc3c(c2)COC3c2cc(Cl)c(OCCCl)c(C#N)c2)n1 (stereo not drawn) [Compound A85] | > 2000
39 | CS(=O)(=O)NC12CC(NC(=O)c3ccc4c(ccn4-c4cc(Cl)c(OCCCl)c(C#N)c4)c3)(C1)C2 [Compound A134] | > 2000
40 | CS(=O)(=O)CCOc1c(Cl)cc(-n2ccc3cc(OCc4ccnc(NS(C)(=O)=O)n4)ccc32)cc1C#N [Compound A72] | > 2000
41 | CS(=O)(=O)Nc1nccc(COc2ccc3c(ccn3-c3cc(Cl)c(OCC(F)(F)F)c(C#N)c3)c2)n1 [Compound A70] | 500 to 2000
42 | CC(Oc1ccc2c(ccn2-c2cc(Cl)c(OCCCl)c(C#N)c2)c1)C1CN(S(C)(=O)=O)C1 (stereo not drawn) [Compound A159] | 500 to 2000
43 | CC(C)(c1ccc(OCc2nccnc2N)cc1)c1cc(Cl)c(OCCCl)c(C#N)c1 [Compound A95] | < 500
44 | CS(=O)(=O)Nc1ncc2c(n1)CN(Cc1ccc3c(ccn3-c3cc(Cl)c(OCCCl)c(C#N)c3)c1)CC2 [Compound A153] | > 2000
45 | CC(C)(c1ccc(OCc2ccnc(NS(C)(=O)=O)n2)cc1)c1cnc(N2CC3(CCC3)C2)c(Cl)c1 [Compound A106] | > 2000
46 | CS(=O)(=O)N[C@H]1C[C@@H](COc2ccc3c(ccn3-c3cc(Cl)c(OCCCl)c(C#N)c3)c2)C1 [Compound A136] | 500 to 2000
47 | CS(=O)(=O)Nc1ncc2cc(-c3ccc4c(ccn4-c4cc(Cl)c(OCCCl)c(C#N)c4)c3)ccc2n1 [Compound A122] | > 2000
48 | CCCOc1ncc(C(C)(C)c2ccc(OCc3ccnc(NS(C)(=O)=O)n3)cc2)cc1Cl [Compound A104] | > 2000
49 | Cn1cc(-c2cc(Cl)c(OCCCl)c(C#N)c2)c2ccc(OCc3ccnc(NS(C)(=O)=O)n3)cc21 [Compound A157] | 500 to 2000
50 | CS(=O)(=O)N1CC(O)(COc2ccc3c(ccn3-c3cc(Cl)c(OCCCl)c(C#N)c3)c2)C1 [Compound A158] | 500 to 2000
51 | CS(=O)(=O)N[C@H]1CC[C@H](COc2ccc3c(ccn3-c3cc(Cl)c(OCCCl)c(C#N)c3)c2)CC1 [Compound A58] | > 2000

From US20220380378A1 (ESSA Pharma, Inc., priority 2021, published 2022)
